Source: patent US10660877B2 (BRISTOL-MYERS SQUIBB COMPANY, priority 2016, dated 2020)

Legend:
[1] = target: human TLR7 (Homo sapiens (Human), UniProt Q9NYK1); assay: TLR7 inhibition reporter assay (HEK-Blue cells, SEAP reporter, gardiquimod stimulation); format: cell-based; conditions: HEK-Blue cells overexpressing human TLR7, gardiquimod 7.5 μM
Experimental: TLR7/8/9 Inhibition Reporter Assays
Briefly, cells are seeded into Greiner 384 well plates (15000 cells per well for TLR7, 20,000 for TLR8 and 25,000 for TLR9) and then treated with test compounds in DMSO to yield a final dose response concentration range of 0.05 nM-50 μM. […] After a 22 hour incubation at 37° C., 5% CO2, SEAP levels are determined with the addition of HEK-Blue™ Detection reagent (Invivogen), a cell culture medium that allows for detection of SEAP, according to manufacturer's specifications. The percent inhibition is determined as the % reduction in the HEK-Blue signal present in wells treated with agonist plus DMSO alone compared to wells treated with a known inhibitor.

[2] = target: human TLR8 (Homo sapiens (Human), UniProt Q9NR97); assay: TLR8 inhibition reporter assay (HEK-Blue cells, SEAP reporter, R848 stimulation); conditions: read-out: TLR8 IC50, HEK-Blue cells overexpressing human TLR8, R848 15.9 μM;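 further: compounds tested from 0.05 nM to 50 µM, 22 h at 37 °C, SEAP measured with HEK-Blue Detection, inhibition relative to agonist plus DMSO versus a known inhibitor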
[3] = target: human TLR9 (Homo sapiens (Human), UniProt Q9NR96); assay: TLR9 inhibition reporter assay (HEK-Blue cells, SEAP reporter, ODN2006 stimulation); conditions: read-out: TLR9 IC50, HEK-Blue cells overexpressing human TLR9, ODN2006 5 nM;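 further: compounds tested over 0.05 nM to 50 µM, 22 h incubation, inhibition taken as SEAP signal drop from agonist plus DMSO wells toward a known inhibitor control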
Chain of human TLR9 (Q9NR96 26-1032): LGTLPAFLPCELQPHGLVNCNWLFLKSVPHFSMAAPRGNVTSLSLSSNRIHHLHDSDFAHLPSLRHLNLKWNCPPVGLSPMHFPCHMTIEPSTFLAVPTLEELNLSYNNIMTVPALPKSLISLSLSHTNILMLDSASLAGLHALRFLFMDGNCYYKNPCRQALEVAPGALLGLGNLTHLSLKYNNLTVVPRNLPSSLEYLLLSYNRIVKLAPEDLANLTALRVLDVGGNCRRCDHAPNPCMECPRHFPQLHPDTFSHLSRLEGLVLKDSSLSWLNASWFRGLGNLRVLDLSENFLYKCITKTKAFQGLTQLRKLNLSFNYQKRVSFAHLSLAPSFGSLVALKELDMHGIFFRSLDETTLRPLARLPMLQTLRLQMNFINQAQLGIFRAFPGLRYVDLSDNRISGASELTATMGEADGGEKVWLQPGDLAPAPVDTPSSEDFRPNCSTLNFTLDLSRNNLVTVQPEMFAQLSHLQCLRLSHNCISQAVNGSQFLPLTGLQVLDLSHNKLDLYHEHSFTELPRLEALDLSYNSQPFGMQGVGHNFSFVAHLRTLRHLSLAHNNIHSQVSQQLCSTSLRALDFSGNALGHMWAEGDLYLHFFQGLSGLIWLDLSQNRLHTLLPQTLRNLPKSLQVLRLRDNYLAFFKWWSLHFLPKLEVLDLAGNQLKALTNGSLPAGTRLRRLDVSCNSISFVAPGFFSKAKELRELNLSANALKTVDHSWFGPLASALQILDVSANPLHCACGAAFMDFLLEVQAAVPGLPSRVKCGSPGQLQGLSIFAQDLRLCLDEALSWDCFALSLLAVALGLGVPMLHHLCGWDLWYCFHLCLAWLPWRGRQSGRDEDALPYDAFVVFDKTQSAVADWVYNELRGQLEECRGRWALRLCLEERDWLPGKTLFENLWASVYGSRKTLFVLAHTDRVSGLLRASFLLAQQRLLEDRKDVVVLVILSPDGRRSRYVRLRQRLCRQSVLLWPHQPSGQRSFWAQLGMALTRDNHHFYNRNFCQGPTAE

Chain of human TLR7 (Q9NYK1 27-1049): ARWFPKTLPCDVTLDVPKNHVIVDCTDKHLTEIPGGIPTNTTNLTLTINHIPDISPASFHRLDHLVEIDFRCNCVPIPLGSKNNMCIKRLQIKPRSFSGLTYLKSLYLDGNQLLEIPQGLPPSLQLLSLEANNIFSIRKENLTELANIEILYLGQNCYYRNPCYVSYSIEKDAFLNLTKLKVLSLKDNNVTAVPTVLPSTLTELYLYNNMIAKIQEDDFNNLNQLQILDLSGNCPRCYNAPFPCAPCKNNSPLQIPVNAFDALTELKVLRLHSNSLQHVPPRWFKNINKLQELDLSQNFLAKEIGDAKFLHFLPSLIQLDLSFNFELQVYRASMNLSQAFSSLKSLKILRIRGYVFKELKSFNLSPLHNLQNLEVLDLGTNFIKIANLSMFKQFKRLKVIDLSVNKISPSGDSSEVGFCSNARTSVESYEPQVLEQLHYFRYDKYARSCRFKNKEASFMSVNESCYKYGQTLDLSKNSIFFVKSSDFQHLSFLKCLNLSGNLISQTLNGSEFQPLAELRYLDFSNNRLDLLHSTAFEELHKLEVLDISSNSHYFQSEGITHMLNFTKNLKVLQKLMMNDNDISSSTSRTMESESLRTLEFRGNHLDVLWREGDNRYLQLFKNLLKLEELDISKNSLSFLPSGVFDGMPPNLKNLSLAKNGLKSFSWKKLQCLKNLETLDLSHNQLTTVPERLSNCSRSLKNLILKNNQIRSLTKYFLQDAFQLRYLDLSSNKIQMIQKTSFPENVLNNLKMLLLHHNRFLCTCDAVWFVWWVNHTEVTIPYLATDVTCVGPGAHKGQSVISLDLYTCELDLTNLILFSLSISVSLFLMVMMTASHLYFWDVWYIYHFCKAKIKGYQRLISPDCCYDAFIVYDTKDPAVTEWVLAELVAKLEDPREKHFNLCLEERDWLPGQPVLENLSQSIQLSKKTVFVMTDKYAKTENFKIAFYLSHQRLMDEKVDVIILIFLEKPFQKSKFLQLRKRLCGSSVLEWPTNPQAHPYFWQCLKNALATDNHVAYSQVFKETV
Chain of human TLR8 (Q9NR97 27-1041): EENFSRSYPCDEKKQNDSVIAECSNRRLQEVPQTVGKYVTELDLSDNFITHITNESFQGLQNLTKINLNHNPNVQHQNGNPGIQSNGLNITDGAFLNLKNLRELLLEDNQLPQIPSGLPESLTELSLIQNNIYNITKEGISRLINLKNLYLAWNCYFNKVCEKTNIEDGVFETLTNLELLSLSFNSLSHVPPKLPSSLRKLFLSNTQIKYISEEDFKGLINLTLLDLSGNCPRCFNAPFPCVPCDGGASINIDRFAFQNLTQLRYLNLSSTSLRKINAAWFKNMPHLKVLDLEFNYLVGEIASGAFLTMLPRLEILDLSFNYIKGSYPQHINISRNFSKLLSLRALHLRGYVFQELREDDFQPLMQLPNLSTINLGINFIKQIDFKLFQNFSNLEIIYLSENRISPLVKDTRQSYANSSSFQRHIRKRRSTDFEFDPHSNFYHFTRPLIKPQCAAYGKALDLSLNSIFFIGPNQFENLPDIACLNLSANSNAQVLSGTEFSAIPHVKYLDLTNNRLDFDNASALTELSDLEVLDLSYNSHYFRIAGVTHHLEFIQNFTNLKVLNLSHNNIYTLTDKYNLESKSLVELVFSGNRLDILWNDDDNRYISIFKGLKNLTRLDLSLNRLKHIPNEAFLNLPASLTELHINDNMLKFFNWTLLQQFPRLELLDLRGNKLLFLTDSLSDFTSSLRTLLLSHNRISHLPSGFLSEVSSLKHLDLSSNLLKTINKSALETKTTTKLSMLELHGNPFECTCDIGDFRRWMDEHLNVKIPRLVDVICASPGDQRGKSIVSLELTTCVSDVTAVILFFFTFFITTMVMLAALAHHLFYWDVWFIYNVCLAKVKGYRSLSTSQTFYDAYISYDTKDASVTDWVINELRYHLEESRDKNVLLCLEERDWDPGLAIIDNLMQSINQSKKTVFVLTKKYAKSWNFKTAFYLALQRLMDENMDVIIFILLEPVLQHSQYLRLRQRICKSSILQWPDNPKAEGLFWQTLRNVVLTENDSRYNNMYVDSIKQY

| Structure (SMILES) | IC50 [1] [nM] | IC50 [2] [nM] | IC50 [3] [µM] |
| --- | --- | --- | --- |
| Cc1cc(-c2[nH]c3ccc(C4CCN(C(=O)CCNc5ncccn5)CC4)cc3c2C(C)C)cc(C)n1 [Example 146, 1-(4-(2-(2,6-dimethylpyridin-4-yl)-3-isopropyl-1H-indol-5-yl)piperidin-1-yl)-3-(pyrimidin-2-ylamino) propan-1-one] | 7.4 | 85.9 | 46.8 |
| Cc1cc(-c2[nH]c3ccc(C4CCN(C(=O)Cn5nnc(N6CCOCC6)n5)CC4)cc3c2C(C)C)cc(C)n1 [Example 149, 1-(4-(2-(2,6-dimethylpyridin-4-yl)-3-isopropyl-1H-indol-5-yl)piperidin-1-yl)-2-(5-morpholino-2H-tetrazol-2-yl)ethan-1-one] | 21.6 | 143 | 16.1 |
| Cc1cc(-c2[nH]c3ccc(C4CCN(C(=O)CNS(C)(=O)=O)CC4)cc3c2C(C)C)cc(C)n1 [Example 150, N-(2-(4-(2-(2,6-dimethylpyridin-4-yl)-3-isopropyl-1H-indol-5-yl)piperidin-1-yl)-2-oxoethyl) methanesulfonamide] | 7.3 | 71.6 | 53.1 |
| Cc1cc(-c2[nH]c3ccc(C4CCN(C(=O)CN5CC(=O)NC5=O)CC4)cc3c2C(C)C)cc(C)n1 [Example 151, 1-(2-(4-(2-(2,6-dimethylpyridin-4-yl)-3-isopropyl-1H-indol-5-yl)piperidin-1-yl)-2-oxoethyl)imidazolidine-2,4-dione] | 15 | 83.8 | 46.7 |
| Cc1cc(-c2[nH]c3ccc(C4CCN(C(=O)CN(C(C)C)C(C)C)CC4)cc3c2C(C)C)cc(C)n1 [Example 153, 2-(diisopropylamino)-1-(4-(2-(2,6-dimethylpyridin-4-yl)-3-isopropyl-1H-indol-5-yl)piperidin-1-yl)ethan-1-one] | 9.9 | 26 | 0.675 |
| Cc1cc(-c2[nH]c3ccc(C4CCN(C(=O)Cn5ccc(C(F)(F)F)n5)CC4)cc3c2C(C)C)cc(C)n1 [Example 156, 1-(4-(2-(2,6-dimethylpyridin-4-yl)-3-isopropyl-1H-indol-5-yl)piperidin-1-yl)-2-(3-(trifluoromethyl)-1H-pyrazol-1-yl)ethan-1-one] | 29.9 | 187 | 18.7 |
| Cc1cc(-c2[nH]c3ccc(C4CCN(C(=O)Cn5ccccc5=O)CC4)cc3c2C(C)C)cc(C)n1 [Example 157, 1-(2-(4-(2-(2,6-dimethylpyridin-4-yl)-3-isopropyl-1H-indol-5-yl)piperidin-1-yl)-2-oxoethyl)pyridin-2(1H)-one] | 16.5 | 65.7 | 2.5 |
| Cc1cc(-c2[nH]c3ccc(C4CCN(C(=O)CN5CCOCC5=O)CC4)cc3c2C(C)C)cc(C)n1 [Example 161, 4-(2-(4-(2-(2,6-dimethylpyridin-4-yl)-3-isopropyl-1H-indol-5-yl)piperidin-1-yl)-2-oxoethyl)morpholin-3-one] | 7.9 | 49.4 | > 50 |
| Cc1cc(-c2[nH]c3ccc(C4CCN(C(=O)Cn5ccc(C6CC6)n5)CC4)cc3c2C(C)C)cc(C)n1 [Example 162, 2-(3-cyclopropyl-1H-pyrazol-1-yl)-1-(4-(2-(2,6-dimethylpyridin-4-yl)-3-isopropyl-1H-indol-5-yl)piperidin-1-yl)ethan-1-one] | 18.5 | 129 | 16.2 |
| Cc1cc(-c2[nH]c3ccc(C4CCN(C(=O)Cn5cnnn5)CC4)cc3c2C(C)C)cc(C)n1 [Example 165, 1-(4-(2-(2,6-dimethylpyridin-4-yl)-3-isopropyl-1H-indol-5-yl)piperidin-1-yl)-2-(1H-tetrazol-1-yl)ethan-1-one] | 13.3 | 66.1 | 17.2 |
| Cc1cc(-c2[nH]c3ccc(C4CCN(C(=O)CN5C[C@@H](O)CC5=O)CC4)cc3c2C(C)C)cc(C)n1 [Example 169, (S)-1-(2-(4-(2-(2,6-dimethylpyridin-4-yl)-3-isopropyl-1H-indol-5-yl)piperidin-1-yl)-2-oxoethyl)-4-hydroxypyrrolidin-2-one] | 11.7 | 73.7 | > 50 |
| Cc1cc(-c2[nH]c3ccc(C4CCN(C(=O)Cn5cncn5)CC4)cc3c2C(C)C)cc(C)n1 [Example 170, 1-(4-(2-(2,6-dimethylpyridin-4-yl)-3-isopropyl-1H-indol-5-yl)piperidin-1-yl)-2-(1H-1,2,4-triazol-1-yl)ethan-1-one] | 12.1 | 206 | > 50 |
| Cc1cc(-c2[nH]c3ccc(C4CCN(C(=O)C5(N(C)C)CC5)CC4)cc3c2C(C)C)cc(C)n1 [Example 172, (1-(dimethylamino)cyclopropyl)(4-(2-(2,6-dimethylpyridin-4-yl)-3-isopropyl-1H-indol-5-yl)piperidin-1-yl)methanone] | 7.9 | 101 | 5.1 |

Results, then the compound that gave them:

| IC50 [1] [nM] | IC50 [2] [nM] | IC50 [3] [µM] | Structure (SMILES) |
| --- | --- | --- | --- |
| 6.7 | 42.3 | 3.84 | Cc1cc(-c2[nH]c3ccc(C4CCN(C(=O)CN(C)C5CCS(=O)(=O)C5)CC4)cc3c2C(C)C)cc(C)n1 (stereo not drawn) [Example 147, 1-(4-(2-(2,6-dimethylpyridin-4-yl)-3-isopropyl-1H-indol-5-yl)piperidin-1-yl)-2-((1,1-dioxidotetrahydrothiophen-3-yl)(methyl)amino)ethan-1-one] |
| 2.2 | 9.8 | 0.9 | COCCN(C)CC(=O)N1CCC(c2ccc3[nH]c(-c4cc(C)nc(C)c4)c(C(C)C)c3c2)CC1 [Example 148, 1-(4-(2-(2,6-dimethylpyridin-4-yl)-3-isopropyl-1H-indol-5-yl)piperidin-1-yl)-2-((2-methoxyethyl)(methyl)amino)ethan-1-one] |
| 5 | 49.8 | 30.4 | Cc1cc(-c2[nH]c3ccc(C4CCN(C(=O)CN5CCCS5(=O)=O)CC4)cc3c2C(C)C)cc(C)n1 [Example 152, 1-(4-(2-(2,6-dimethylpyridin-4-yl)-3-isopropyl-1H-indol-5-yl)piperidin-1-yl)-2-(1,1-dioxidoisothiazolidin-2-yl)ethan-1-one] |
| 5.9 | 29.5 | > 50 | Cc1cc(-c2[nH]c3ccc(C4CCN(C(=O)CN5CCCC5=O)CC4)cc3c2C(C)C)cc(C)n1 [Example 154, 1-(2-(4-(2-(2,6-dimethylpyridin-4-yl)-3-isopropyl-1H-indol-5-yl)piperidin-1-yl)-2-oxoethyl)pyrrolidin-2-one] |
| 2.7 | 31.7 | 26 | Cc1cc(-c2[nH]c3ccc(C4CCN(C(=O)Cn5ncnn5)CC4)cc3c2C(C)C)cc(C)n1 [Example 155, 1-(4-(2-(2,6-dimethylpyridin-4-yl)-3-isopropyl-1H-indol-5-yl)piperidin-1-yl)-2-(2H-tetrazol-2-yl) ethan-1-one] |
| 6 | 85.4 | 5.72 | Cc1cc(-c2[nH]c3ccc(C4CCN(C(=O)Cn5ccnn5)CC4)cc3c2C(C)C)cc(C)n1 [Example 158, 1-(4-(2-(2,6-dimethylpyridin-4-yl)-3-isopropyl-1H-indol-5-yl)piperidin-1-yl)-2-(1H-1,2,3-triazol-1-yl)ethan-1-one] |
| 4.8 | 47.2 | 24.4 | Cc1cc(-c2[nH]c3ccc(C4CCN(C(=O)Cn5nnnc5C)CC4)cc3c2C(C)C)cc(C)n1 [Example 159, 1-(4-(2-(2,6-dimethylpyridin-4-yl)-3-isopropyl-1H-indol-5-yl)piperidin-1-yl)-2-(5-methyl-1H-tetrazol-1-yl)ethan-1-one] |
| 7.1 | 35.8 | > 50 | Cc1cc(-c2[nH]c3ccc(C4CCN(C(=O)CN5C(=O)CN(C)C5=O)CC4)cc3c2C(C)C)cc(C)n1 [Example 160, 3-(2-(4-(2-(2,6-dimethylpyridin-4-yl)-3-isopropyl-1H-indol-5-yl)piperidin-1-yl)-2-oxoethyl)-1-methylimidazolidine-2,4-dione] |
| 0.9 | 8.4 | 0.778 | Cc1cc(-c2[nH]c3ccc(C4CCN(C(=O)CN5CCN(C)CC5)CC4)cc3c2C(C)C)cc(C)n1 [Example 163, 1-(4-(2-(2,6-dimethylpyridin-4-yl)-3-isopropyl-1H-indol-5-yl)piperidin-1-yl)-2-(4-methylpiperazin-1-yl)ethan-1-one] |
| 4.6 | 39.7 | 14.2 | Cc1cc(-c2[nH]c3ccc(C4CCN(C(=O)CN5CCOC5=O)CC4)cc3c2C(C)C)cc(C)n1 [Example 164, 3-(2-(4-(2-(2,6-dimethylpyridin-4-yl)-3-isopropyl-1H-indol-5-yl)piperidin-1-yl)-2-oxoethyl) oxazolidin-2-one] |
| 0.5 | 79.8 | > 50 | CC(=O)NCC(=O)N1CCC(c2ccc3[nH]c(-c4cc(C)nc(C)c4)c(C(C)C)c3c2)CC1 [Example 166, N-(2-(4-(2-(2,6-dimethylpyridin-4-yl)-3-isopropyl-1H-indol-5-yl)piperidin-1-yl)-2-oxoethyl)acetamide] |
| 5.9 | 50.9 | 0.25 | Cc1cc(-c2[nH]c3ccc(C4CCN(C(=O)CN5CCCCS5(=O)=O)CC4)cc3c2C(C)C)cc(C)n1 [Example 167, 1-(4-(2-(2,6-dimethylpyridin-4-yl)-3-isopropyl-1H-indol-5-yl)piperidin-1-yl)-2-(1,1-dioxido-1,2-thiazinan-2-yl)ethan-1-one] |
| 2.6 | 18.3 | 0.542 | Cc1cc(-c2[nH]c3ccc(C4CCN(C(=O)CN5CCN(CCO)CC5)CC4)cc3c2C(C)C)cc(C)n1 [Example 171, 1-(4-(2-(2,6-dimethylpyridin-4-yl)-3-isopropyl-1H-indol-5-yl)piperidin-1-yl)-2-(4-(2-hydroxyethyl)piperazin-1-yl)ethan-1-one] |
